Experimental data published in US20110207916A1, “Dual Affinity Polypeptides for Purification” (priority 2007, published 2011).

Tests used:
[1] = molecular target: T1, AMG-Z (AMG(1-526aa)::Z, Aspergillus niger glucoamylase fused to Z domain of Staphylococcus aureus protein A, SEQ ID NO 25) (Aspergillus niger, UniProt P69328); experiment: Biacore SPR, binding of DAP AMG-Z to acarbose ligand (biotin-acarbose on SA chip)
T1 construct: made in house; host or cells: Aspergillus oryzae (transformant JaL1171 of host BECh2)
Excerpt: The commercialised surface plasmon resonance (SPR) technology for real time monitoring biomolecular binding event is used to measure the binding affinities for the prepared DAP candidates. The general principle of this technology is that a SPR sensor chip measures changes in refractive index, and the changes in refractive index correlate to changes in mass in the aqueous layer close to the sensor surface. When target molecules in solution bind to ligands, immobilised on the sensor surface, the mass increases, and when they dissociate from the ligands the mass decreases. This principle facilitates a continuous, real time monitoring of the association and dissociation of interacting molecules. The graphical presentation of the relationship provides quantitative information in real time on the binding specificity, active concentration of molecule in a sample, reaction kinetics and affinity. […]
Immobilisation occurred by direct covalent coupling to the surface (using the Amine Coupling Kit, BiaCore, GE Health Care) or via a capturing molecule as prescribed by the manufacturer (BiaCore, GE Health Care). The amount of coupled target was quantified and expressed in Refractive Units (RU). […]

[2] = system: VhhRR6(R2)-Z (variable region of Llama single chain antibody against RR6 fused to Z domain of Staphylococcus aureus protein A, SEQ ID NO 28); experiment: Biacore SPR, binding of DAP VhhRR6(R2)-Z to Reactive Red 6 ligand (biotin-Reactive Red 6 on SA chip); conditions: Table 1 (summary, rounded)
Excerpt: (§1) The commercialised surface plasmon resonance (SPR) technology for real time monitoring biomolecular binding event is used to measure the binding affinities for the prepared DAP candidates. The general principle of this technology is that a SPR sensor chip measures changes in refractive index, and the changes in refractive index correlate to changes in mass in the aqueous layer close to the sensor surface. When target molecules in solution bind to ligands, immobilised on the sensor surface, the mass increases, and when they dissociate from the ligands the mass decreases. This principle facilitates a continuous, real time monitoring of the association and dissociation of interacting molecules. The graphical presentation of the relationship provides quantitative information in real time on the binding specificity, active concentration of molecule in a sample, reaction kinetics and affinity.
In order to evaluate the binding affinities for both of the binding affinities present in the DAP either IgG or the capturing ligand had to be immobilized onto the sensor chip. For IgG rabbit anti-Mannanase was used and for the ligand the chip was coated with streptavidin and the ligand was then immobilized via biotin linked to the appropriate ligand.
In order to measure the binding to RR6 and acarbose the following compounds were prepared; biotin-linked acarbose and biotin-linked RR6.
The mixture was stirred at RT for 30 min. […]
(§2) The DAP candidates were analysed for binding to the capturing ligand sensor chip and the target biomolecule sensor chip respectively. […]
Immobilisation occurred by direct covalent coupling to the surface (using the Amine Coupling Kit, BiaCore, GE Health Care) or via a capturing molecule as prescribed by the manufacturer (BiaCore, GE Health Care). The amount of coupled target was quantified and expressed in Refractive Units (RU).
Interactions were monitored by injecting samples (20 μl/min) over the prepared sensor surface of the chip. Unless stated otherwise, the binding was assessed in 10 mM sodium acetatbuffer pH 5.0 at room temperature. […]

[3] = system: VhhRR6(R2)-Z + IgG (variable region of Llama single chain antibody against RR6 fused to Z domain of Staphylococcus aureus protein A, SEQ ID NO 28, with IgG …); experiment: Biacore SPR, binding of DAP VhhRR6(R2)-Z to Reactive Red 6 ligand in the presence of IgG; conditions: Table 1 footnote b; VhhRR6(R2)-Z mixed with IgG before loading to the Biacore
Excerpt: as §1, with “affinity. […]” for “affinity.”
as §2
Immobilisation occurred by direct covalent coupling to the surface (using the Amine Coupling Kit, BiaCore, GE Health Care) or via a capturing molecule as prescribed by the manufacturer (BiaCore, GE Health Care). The amount of coupled target was quantified and expressed in […] (RU). […]

T1 sequence (P69328 25-526, added parts left off): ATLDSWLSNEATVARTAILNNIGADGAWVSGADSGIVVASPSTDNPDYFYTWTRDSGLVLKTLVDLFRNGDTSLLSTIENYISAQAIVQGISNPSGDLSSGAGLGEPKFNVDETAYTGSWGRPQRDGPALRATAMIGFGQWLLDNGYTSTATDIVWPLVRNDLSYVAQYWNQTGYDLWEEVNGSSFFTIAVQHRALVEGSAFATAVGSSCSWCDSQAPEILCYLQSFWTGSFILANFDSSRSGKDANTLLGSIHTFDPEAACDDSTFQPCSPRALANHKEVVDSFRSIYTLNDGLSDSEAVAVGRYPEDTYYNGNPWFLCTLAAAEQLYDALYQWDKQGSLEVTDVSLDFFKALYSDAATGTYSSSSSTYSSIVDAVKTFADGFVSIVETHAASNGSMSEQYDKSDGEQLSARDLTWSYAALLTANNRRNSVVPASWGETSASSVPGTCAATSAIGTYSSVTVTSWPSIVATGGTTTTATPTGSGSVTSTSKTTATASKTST

Row | Compound | kon ([1]; pH 5, read-out: Ligand binding ka) [M⁻¹ s⁻¹] | koff ([1]; pH 5, read-out: Ligand binding kd) [s⁻¹] | Kd [2] [nM] | Ligand binding ka [2] [M⁻¹ s⁻¹] | Ligand binding kd [2] [s⁻¹] | Kd [3] [µM] | binding after injection is stopped [3]
1 | C[C@H]1O[C@H](O[C@H]2[C@H](O)[C@@H](O)[C@@H](O[C@H]3[C@H](O)[C@@H](O)C(O)O[C@@H]3CO)O[C@@H]2CO)[C@H](O)[C@@H](O)[C@@H]1N[C@H]1C=C(CO)[C@@H](O)[C@H](O)[C@H]1O (stereo partly shown) [Acarbose] | 10000 | 0.002 | – | – | – | – | –
2 | Reactive Red 6 [RR6] | – | – | 200 | 20000 | 0.004 | 10 | the binding is broken completely as soon as the injection is stopped
